Assay results as given in the NIST ThermoML archive (doi:10.1021/je060271a).

Conditions: 303.15 K, Liquid, Vibrating tube method

CCCCCCCC(=O)OCC(COC(=O)CCCCCCC)(COC(=O)CCCCCCC)COC(=O)CCCCCCC [pentaerythritol tetraoctanoate]
Conditions	mass density [kg/m3]
17535 kPa	966
17571 kPa	965.8
17601 kPa	966
17637 kPa	966
17674 kPa	966.1
17705 kPa	966
17742 kPa	966.1
17773 kPa	966.1
17810 kPa	966
17848 kPa	966.2
17879 kPa	966.2
17916 kPa	966.1
17948 kPa	966.1
17985 kPa	966.2
18024 kPa	966.2
18056 kPa	966
18095 kPa	966.2
18133 kPa	966.3
18165 kPa	966.2
18205 kPa	966.3
18238 kPa	966.4
18278 kPa	966.3
18311 kPa	966.4
18351 kPa	966.5
18391 kPa	966.5
18424 kPa	966.4
18465 kPa	966.4
18499 kPa	966.5
18540 kPa	966.5
18573 kPa	966.5
18614 kPa	966.5
18656 kPa	966.5
18690 kPa	966.5
18732 kPa	966.6
18768 kPa	966.6
18810 kPa	966.7
18851 kPa	966.7
18886 kPa	966.8
18930 kPa	966.6
18966 kPa	966.7
19009 kPa	966.9
19045 kPa	966.8
19087 kPa	966.7
19131 kPa	966.9
19168 kPa	966.8
19211 kPa	966.9
19248 kPa	967
19292 kPa	967.1
19338 kPa	966.9
19375 kPa	966.9
19420 kPa	966.9
19458 kPa	967
19502 kPa	967
19548 kPa	967.1
19586 kPa	967.1
19632 kPa	967.1
19677 kPa	967.1
19715 kPa	967.1
19762 kPa	967.2
19802 kPa	967.2
19851 kPa	967.3
19890 kPa	967.2
19938 kPa	967.3
19986 kPa	967.3
20025 kPa	967.4
20074 kPa	967.3
20115 kPa	967.4
20163 kPa	967.4
20203 kPa	967.4
20252 kPa	967.5
20302 kPa	967.4
20344 kPa	967.4
20397 kPa	967.5
20440 kPa	967.5
20489 kPa	967.5
20532 kPa	967.5
20582 kPa	967.6
20632 kPa	967.7
20674 kPa	967.7
20724 kPa	967.7
20766 kPa	967.8
20817 kPa	967.8
20872 kPa	967.7
20948 kPa	968
21030 kPa	968
21112 kPa	968
21144 kPa	968
21170 kPa	968
21194 kPa	968
21222 kPa	968
21244 kPa	967.9
21272 kPa	968
21299 kPa	968
21322 kPa	968.1
21350 kPa	968
21374 kPa	968
21402 kPa	968.1
21425 kPa	968.1
21454 kPa	968.2
21478 kPa	968.1
21506 kPa	968.1
21533 kPa	968.2
21557 kPa	968.2
21585 kPa	968.2
21610 kPa	968.2
21636 kPa	968.2
21666 kPa	968.2
21690 kPa	968.2
21721 kPa	968.4
21743 kPa	968.2
21775 kPa	968.2
21798 kPa	968.3
21827 kPa	968.3
21850 kPa	968.4
21880 kPa	968.3
21909 kPa	968.3
21933 kPa	968.4
21964 kPa	968.4
21988 kPa	968.3
22017 kPa	968.4
22049 kPa	968.5
22071 kPa	968.4
22101 kPa	968.5
22126 kPa	968.5
22158 kPa	968.6
22186 kPa	968.5
22214 kPa	968.5
22241 kPa	968.7
22266 kPa	968.6
22297 kPa	968.6
22328 kPa	968.6
22355 kPa	968.7
22385 kPa	968.7
22411 kPa	968.7
22441 kPa	968.7
22473 kPa	968.8
22499 kPa	968.6
22531 kPa	968.8
22556 kPa	968.7
22588 kPa	968.8
22614 kPa	968.8
22647 kPa	968.8
22677 kPa	968.8
22703 kPa	968.9
22736 kPa	968.8
22762 kPa	968.9
22795 kPa	968.9
22823 kPa	968.9
22855 kPa	969
22884 kPa	969
22910 kPa	968.9
22944 kPa	968.9
22976 kPa	969
23001 kPa	969
23032 kPa	968.9
23066 kPa	969.2
23092 kPa	969
23125 kPa	969.1
23153 kPa	968.9
23185 kPa	969.2
23220 kPa	969.1
23246 kPa	969.2
23276 kPa	969.1
23312 kPa	969.2
23339 kPa	969.2
23371 kPa	969.2
23405 kPa	969.2
23434 kPa	969.3
23465 kPa	969.3
23500 kPa	969.2
23527 kPa	969.3
23561 kPa	969.3
23590 kPa	969.3
23626 kPa	969.4
23656 kPa	969.3
23690 kPa	969.4
23721 kPa	969.3
23753 kPa	969.5
23781 kPa	969.4
23817 kPa	969.5
23853 kPa	969.5
23880 kPa	969.5
23917 kPa	969.4
23950 kPa	969.5
23980 kPa	969.6
24016 kPa	969.5
24045 kPa	969.7
24080 kPa	969.5
24110 kPa	969.7
24146 kPa	969.6
24184 kPa	969.6
24212 kPa	969.6
24254 kPa	969.8
24280 kPa	969.7
24317 kPa	969.7
24348 kPa	969.8
24384 kPa	969.8
24420 kPa	969.7
24450 kPa	969.8
24488 kPa	969.9
24520 kPa	969.9
24557 kPa	969.8
24589 kPa	969.8
24627 kPa	969.8
24658 kPa	969.9
24697 kPa	969.9
24728 kPa	969.8
24766 kPa	970
24804 kPa	969.9
24836 kPa	969.9
24874 kPa	970.1
24906 kPa	970.1
24945 kPa	970.2
24978 kPa	970.1
25016 kPa	970.1
25048 kPa	970.2
25087 kPa	970.1
25126 kPa	970.1
25159 kPa	970.1
25199 kPa	970.2
25232 kPa	970.1
25272 kPa	970.2
25310 kPa	970.3
25343 kPa	970.2
25382 kPa	970.2
25416 kPa	970.2
25457 kPa	970.3
25491 kPa	970.4
25532 kPa	970.3
25575 kPa	970.3
25611 kPa	970.5
25653 kPa	970.3
25689 kPa	970.7
25726 kPa	970.3
25768 kPa	970.5
25804 kPa	970.5
25845 kPa	970.5
25882 kPa	970.6
25929 kPa	970.6
25969 kPa	970.5
26006 kPa	970.5
26051 kPa	970.7
26084 kPa	970.7
26119 kPa	970.7
26164 kPa	970.7
26203 kPa	970.7
26241 kPa	970.8
26285 kPa	970.8
26318 kPa	970.7
26384 kPa	970.8
26413 kPa	970.8
26446 kPa	970.8
26474 kPa	970.9
26520 kPa	970.9
26558 kPa	971
26597 kPa	971
26642 kPa	970.9
26681 kPa	971.1
26720 kPa	971
26767 kPa	971.1
26806 kPa	971.1
26846 kPa	971.1
26893 kPa	971.1
26934 kPa	971.2
26974 kPa	971
27015 kPa	971.2
27064 kPa	971.2
27104 kPa	971.2
27153 kPa	971.2
27193 kPa	971.2
27234 kPa	971.3
27275 kPa	971.4
27317 kPa	971.3
27366 kPa	971.3
27407 kPa	971.4
27450 kPa	971.4
27500 kPa	971.4
27543 kPa	971.4
27585 kPa	971.6
27636 kPa	971.4
27678 kPa	971.4
27720 kPa	971.6
27763 kPa	971.5
27814 kPa	971.6
27856 kPa	971.5
27907 kPa	971.5
27950 kPa	971.7
27993 kPa	971.7
28045 kPa	971.7
28089 kPa	971.7
28134 kPa	971.8
28178 kPa	971.9
28230 kPa	971.9
28273 kPa	971.8
28325 kPa	972
28369 kPa	971.9
